{
  "source": "PubChem BioAssay (NCI)",
  "test_in_all_cases": "DTP human tumour cell line panel, 48 h",
  "key": {"HCC-2998 colon": {"test_system": "HCC-2998 colon"}, "OVCAR-5 ovarian": {"test_system": "OVCAR-5 ovarian"}, "CAKI-1 renal": {"test_system": "CAKI-1 renal"}, "K-562 leukemia": {"test_system": "K-562 leukemia"}, "MCF7 breast": {"test_system": "MCF7 breast"}, "NCI-H460 lung": {"test_system": "NCI-H460 lung"}, "HCT-15 colon": {"test_system": "HCT-15 colon"}, "SK-MEL-5 melanoma": {"test_system": "SK-MEL-5 melanoma"}, "SF-295 CNS": {"test_system": "SF-295 CNS"}, "RPMI-8226 leukemia": {"test_system": "RPMI-8226 leukemia"}, "CCRF-CEM leukemia": {"test_system": "CCRF-CEM leukemia"}, "UACC-62 melanoma": {"test_system": "UACC-62 melanoma"}, "HT29 colon": {"test_system": "HT29 colon"}, "NCI-H522 lung": {"test_system": "NCI-H522 lung"}, "TK-10 renal": {"test_system": "TK-10 renal"}, "SF-268 CNS": {"test_system": "SF-268 CNS"}, "SF-539 CNS": {"test_system": "SF-539 CNS"}, "SNB-19 CNS": {"test_system": "SNB-19 CNS"}, "LOX IMVI melanoma": {"test_system": "LOX IMVI melanoma"}, "HCT-116 colon": {"test_system": "HCT-116 colon"}, "NCI-H23 lung": {"test_system": "NCI-H23 lung"}, "T-47D breast": {"test_system": "T-47D breast"}, "SK-MEL-2 melanoma": {"test_system": "SK-MEL-2 melanoma"}, "NCI-H226 lung": {"test_system": "NCI-H226 lung"}, "A498 renal": {"test_system": "A498 renal"}, "HS 578T breast": {"test_system": "HS 578T breast"}, "BT-549 breast": {"test_system": "BT-549 breast"}, "OVCAR-8 ovarian": {"test_system": "OVCAR-8 ovarian"}, "HOP-92 NSCLC": {"test_system": "HOP-92 NSCLC"}},
  "note": "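Cultured in 96-well plates, cells were exposed to test compound for 48 hours across five concentrations. The concentration for 50% growth inhibition is given as GI50. TGI: concentration producing complete growth inhibition.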",
  "data": [
    {"molecule": "Cc1cc2nc3c4cc(C=O)ccc4n(CCN(C)C)c3nc2cc1C", "values": [
      {"measurement": "GI50", "setting": "HCC-2998 colon", "value": 1330, "unit": "nM"},
      {"measurement": "TGI", "setting": "HCC-2998 colon", "value": 3.14, "unit": "µM"},
      {"measurement": "GI50", "setting": "OVCAR-5 ovarian", "value": 2170, "unit": "nM"},
      {"measurement": "TGI", "setting": "OVCAR-5 ovarian", "value": 7.23, "unit": "µM"},
      {"measurement": "GI50", "setting": "CAKI-1 renal", "value": 1700, "unit": "nM"},
      {"measurement": "TGI", "setting": "CAKI-1 renal", "value": 9.69, "unit": "µM"},
      {"measurement": "GI50", "setting": "K-562 leukemia", "value": 820, "unit": "nM"},
      {"measurement": "TGI", "setting": "K-562 leukemia", "value": 18.6, "unit": "µM"},
      {"measurement": "GI50", "setting": "MCF7 breast", "value": 1820, "unit": "nM"},
      {"measurement": "TGI", "setting": "MCF7 breast", "value": 5.99, "unit": "µM"},
      {"measurement": "GI50", "setting": "NCI-H460 lung", "value": 1190, "unit": "nM"},
      {"measurement": "TGI", "setting": "NCI-H460 lung", "value": 10.1, "unit": "µM"},
      {"measurement": "GI50", "setting": "HCT-15 colon", "value": 1360, "unit": "nM"},
      {"measurement": "TGI", "setting": "HCT-15 colon", "value": 7.24, "unit": "µM"},
      {"measurement": "GI50", "setting": "SK-MEL-5 melanoma", "value": 1690, "unit": "nM"},
      {"measurement": "TGI", "setting": "SK-MEL-5 melanoma", "value": 3.33, "unit": "µM"},
      {"measurement": "GI50", "setting": "SF-295 CNS", "value": 696, "unit": "nM"},
      {"measurement": "TGI", "setting": "SF-295 CNS", "value": 5.69, "unit": "µM"},
      {"measurement": "GI50", "setting": "RPMI-8226 leukemia", "value": 1910, "unit": "nM"},
      {"measurement": "TGI", "setting": "RPMI-8226 leukemia", "value": 5.16, "unit": "µM"},
      {"measurement": "GI50", "setting": "CCRF-CEM leukemia", "value": 1140, "unit": "nM"},
      {"measurement": "TGI", "setting": "CCRF-CEM leukemia", "value": 7.77, "unit": "µM"},
      {"measurement": "GI50", "setting": "UACC-62 melanoma", "value": 1750, "unit": "nM"},
      {"measurement": "TGI", "setting": "UACC-62 melanoma", "value": 3.7, "unit": "µM"},
      {"measurement": "GI50", "setting": "HT29 colon", "value": 656, "unit": "nM"},
      {"measurement": "TGI", "setting": "HT29 colon", "value": 3.74, "unit": "µM"},
      {"measurement": "GI50", "setting": "NCI-H522 lung", "value": 1870, "unit": "nM"},
      {"measurement": "TGI", "setting": "NCI-H522 lung", "value": 4.91, "unit": "µM"},
      {"measurement": "GI50", "setting": "TK-10 renal", "value": 1970, "unit": "nM"},
      {"measurement": "TGI", "setting": "TK-10 renal", "value": 6.59, "unit": "µM"},
      {"measurement": "GI50", "setting": "SF-268 CNS", "value": 2050, "unit": "nM"},
      {"measurement": "TGI", "setting": "SF-268 CNS", "value": 6.63, "unit": "µM"},
      {"measurement": "GI50", "setting": "SF-539 CNS", "value": 1510, "unit": "nM"},
      {"measurement": "TGI", "setting": "SF-539 CNS", "value": 3.87, "unit": "µM"},
      {"measurement": "GI50", "setting": "SNB-19 CNS", "value": 1650, "unit": "nM"},
      {"measurement": "TGI", "setting": "SNB-19 CNS", "value": 9.09, "unit": "µM"},
      {"measurement": "GI50", "setting": "LOX IMVI melanoma", "value": 532, "unit": "nM"},
      {"measurement": "TGI", "setting": "LOX IMVI melanoma", "value": 2500, "unit": "nM"},
      {"measurement": "GI50", "setting": "HCT-116 colon", "value": 484, "unit": "nM"},
      {"measurement": "TGI", "setting": "HCT-116 colon", "value": 9.1, "unit": "µM"},
      {"measurement": "GI50", "setting": "NCI-H23 lung", "value": 1490, "unit": "nM"},
      {"measurement": "TGI", "setting": "NCI-H23 lung", "value": 4.45, "unit": "µM"},
      {"measurement": "GI50", "setting": "T-47D breast", "value": 2140, "unit": "nM"},
      {"measurement": "TGI", "setting": "T-47D breast", "value": 7.04, "unit": "µM"},
      {"measurement": "GI50", "setting": "SK-MEL-2 melanoma", "value": 1760, "unit": "nM"},
      {"measurement": "TGI", "setting": "SK-MEL-2 melanoma", "value": 3.65, "unit": "µM"},
      {"measurement": "GI50", "setting": "NCI-H226 lung", "value": 2070, "unit": "nM"},
      {"measurement": "TGI", "setting": "NCI-H226 lung", "value": 7.32, "unit": "µM"},
      {"measurement": "GI50", "setting": "A498 renal", "value": 500, "unit": "nM"},
      {"measurement": "TGI", "setting": "A498 renal", "value": 2090, "unit": "nM"},
      {"measurement": "GI50", "setting": "HS 578T breast", "value": 2250, "unit": "nM"},
      {"measurement": "TGI", "setting": "HS 578T breast", "value": 6.7, "unit": "µM"},
      {"measurement": "GI50", "setting": "BT-549 breast", "value": 2150, "unit": "nM"},
      {"measurement": "TGI", "setting": "BT-549 breast", "value": 5.35, "unit": "µM"},
      {"measurement": "GI50", "setting": "OVCAR-8 ovarian", "value": 777, "unit": "nM"},
      {"measurement": "TGI", "setting": "OVCAR-8 ovarian", "value": 10.9, "unit": "µM"},
      {"measurement": "GI50", "setting": "HOP-92 NSCLC", "value": 1490, "unit": "nM"},
      {"measurement": "TGI", "setting": "HOP-92 NSCLC", "value": 7.35, "unit": "µM"}
    ]}
  ]
}
